ChEMBL document CHEMBL5625170, “Design, synthesis, and biological evaluation of novel penindolone derivatives as potential inhibitors of hemagglutinin-mediated membrane fusion” (Eur J Med Chem, 2023)

How the values were obtained:
[1] = Cytotoxicity against dog MDCK cells assessed as cell viability measured after 48 hrs by MTT assay; type: toxicity, cell-based, Canis lupus familiaris
[2] = Selectivity index, ratio of CC50 for cytotoxicity against dog MDCK cells to IC50 for anti-viral activity against Influenza A virus (A/Puerto Rico/8/34 infected in MDCK cells; type: toxicity, cell-based; conditions: read-out: Selectivity Index

Structure (SMILES)	CC50 at 48 h [1]	selectivity ratio [2]
CC(=O)c1cc(C)c(O)c(Cc2[nH]c3ccc(-c4ccsc4)cc3c2Cc2c(O)c(C)cc(C(C)=O)c2O)c1O	> 300 µM	–
CSc1ccc(-c2ccc3c(Cc4c(O)c(C)cc(C(C)=O)c4O)c(Cc4c(O)c(C)cc(C(C)=O)c4O)[nH]c3c2)cc1	> 300 µM	> 33
CC(=O)c1cc(C)c(O)c(Cc2[nH]c3ccc(Cl)cc3c2Cc2c(O)c(C)cc(C(C)=O)c2O)c1O	> 300 µM	–
CC(=O)c1cc(C)c(O)c(Cc2[nH]c3ccc(-c4csc5ccccc45)cc3c2Cc2c(O)c(C)cc(C(C)=O)c2O)c1O	> 300 µM	> 12.8
CC(=O)c1cc(C)c(O)c(Cc2[nH]c3cc(/C=C/c4ccccc4)ccc3c2Cc2c(O)c(C)cc(C(C)=O)c2O)c1O	> 300 µM	–
COc1ccc2cc(-c3ccc4c(Cc5c(O)c(C)cc(C(C)=O)c5O)c(Cc5c(O)c(C)cc(C(C)=O)c5O)[nH]c4c3)ccc2c1	> 300 µM	> 12.9
CC(=O)c1cc(C)c(O)c(Cc2[nH]c3cc(-c4csc5ccccc45)ccc3c2Cc2c(O)c(C)cc(C(C)=O)c2O)c1O	> 300 µM	> 14.4
CC(=O)c1cc(C)c(O)c(Cc2[nH]c3ccc(-c4cccc(O)c4)cc3c2Cc2c(O)c(C)cc(C(C)=O)c2O)c1O	152 µM	–
CC(=O)c1cc(C)c(O)c(Cc2c(Cc3c(O)c(C)cc(C(C)=O)c3O)n(Cc3ccccc3)c3ccccc23)c1O	> 300 µM	–
CC(=O)c1cc(C)c(O)c(Cc2[nH]c3cc(-c4cc(C(C)(C)C)cc(C(C)(C)C)c4)ccc3c2Cc2c(O)c(C)cc(C(C)=O)c2O)c1O	280 µM	10.4
COc1ccc(-c2ccc3[nH]c(Cc4c(O)c(C)cc(C(C)=O)c4O)c(Cc4c(O)c(C)cc(C(C)=O)c4O)c3c2)cc1OC	> 300 µM	> 16.6
CC(=O)c1cc(C)c(O)c(Cc2[nH]c3cc(-c4cc(C(F)(F)F)cc(C(F)(F)F)c4)ccc3c2Cc2c(O)c(C)cc(C(C)=O)c2O)c1O	> 300 µM	–
CC(=O)c1cc(C)c(O)c(Cc2[nH]c3cc(-c4cccc(F)c4)ccc3c2Cc2c(O)c(C)cc(C(C)=O)c2O)c1O	> 300 µM	–
CC(=O)c1cc(C)c(O)c(Cc2[nH]c3cc(-c4cc(C)cc(C)c4)ccc3c2Cc2c(O)c(C)cc(C(C)=O)c2O)c1O	> 300 µM	> 29.7
CC(=O)c1cc(C)c(O)c(Cc2[nH]c3ccc(-c4ccc(F)cc4)cc3c2Cc2c(O)c(C)cc(C(C)=O)c2O)c1O	212 µM	–
CC(=O)c1cc(C)c(O)c(Cc2[nH]c3ccc(C)cc3c2Cc2c(O)c(C)cc(C(C)=O)c2O)c1O	> 300 µM	> 14.6
CC(=O)c1cc(C)c(O)c(Cc2[nH]c3cc(-c4ccccc4F)ccc3c2Cc2c(O)c(C)cc(C(C)=O)c2O)c1O	> 300 µM	–
CC(=O)c1cc(C)c(O)c(Cc2[nH]c3cc(-c4ccsc4)ccc3c2Cc2c(O)c(C)cc(C(C)=O)c2O)c1O	> 300 µM	–
COc1ccc2[nH]c(Cc3c(O)c(C)cc(C(C)=O)c3O)c(Cc3c(O)c(C)cc(C(C)=O)c3O)c2c1	> 300 µM	> 18.9
CC(=O)c1cc(C)c(O)c(Cc2[nH]c3cc(-c4ccc(Cl)cc4)ccc3c2Cc2c(O)c(C)cc(C(C)=O)c2O)c1O	> 300 µM	–
CC(=O)c1cc(C)c(O)c(Cc2[nH]c3ccc(-c4cc(C(F)(F)F)cc(C(F)(F)F)c4)cc3c2Cc2c(O)c(C)cc(C(C)=O)c2O)c1O	> 300 µM	–

Structure (SMILES)	CC50 at 48 h [1]	selectivity ratio [2]
COc1cc(-c2ccc3[nH]c(Cc4c(O)c(C)cc(C(C)=O)c4O)c(Cc4c(O)c(C)cc(C(C)=O)c4O)c3c2)cc(OC)c1OC	> 300 µM	> 37.5
CC(=O)c1cc(C)c(O)c(Cc2[nH]c3ccc(-c4ccc5c(c4)OCCO5)cc3c2Cc2c(O)c(C)cc(C(C)=O)c2O)c1O	> 300 µM	> 23.1
CC(=O)c1cc(C)c(O)c(Cc2[nH]c3ccc(-c4ccc(Cl)cc4)cc3c2Cc2c(O)c(C)cc(C(C)=O)c2O)c1O	> 300 µM	> 11.1
CC(=O)c1cc(C)c(O)c(Cc2[nH]c3ccc(-c4ccc(C)cc4)cc3c2Cc2c(O)c(C)cc(C(C)=O)c2O)c1O	> 300 µM	> 19.4
CC(=O)c1cc(C)c(O)c(Cc2[nH]c3cc(-c4ccc(F)cc4)ccc3c2Cc2c(O)c(C)cc(C(C)=O)c2O)c1O	256 µM	13.4
CC(=O)c1cc(C)c(O)c(Cc2[nH]c3ccc(F)cc3c2Cc2c(O)c(C)cc(C(C)=O)c2O)c1O	281 µM	–
COc1ccc2c(Cc3c(O)c(C)cc(C(C)=O)c3O)c(Cc3c(O)c(C)cc(C(C)=O)c3O)[nH]c2c1	> 300 µM	> 23.8
CC(=O)c1cc(C)c(O)c(Cc2[nH]c3cc(-c4ccccc4)ccc3c2Cc2c(O)c(C)cc(C(C)=O)c2O)c1O	> 300 µM	> 12.8
CC(=O)c1cc(C)c(O)c(Cc2[nH]c3cc(-c4cccc(O)c4)ccc3c2Cc2c(O)c(C)cc(C(C)=O)c2O)c1O	126 µM	–
CC(=O)c1cc(C)c(O)c(Cc2c(Cc3c(O)c(C)cc(C(C)=O)c3O)n(Cc3ccc(F)cc3)c3ccccc23)c1O	> 300 µM	–
CC(=O)c1cc(C)c(O)c(Cc2[nH]c3cc(C)ccc3c2Cc2c(O)c(C)cc(C(C)=O)c2O)c1O	> 300 µM	> 19.9
COc1ccc(-c2ccc3c(Cc4c(O)c(C)cc(C(C)=O)c4O)c(Cc4c(O)c(C)cc(C(C)=O)c4O)[nH]c3c2)cc1OC	240 µM	12.2
COc1cccc(OC)c1-c1ccc2c(Cc3c(O)c(C)cc(C(C)=O)c3O)c(Cc3c(O)c(C)cc(C(C)=O)c3O)[nH]c2c1	> 300 µM	> 15.4
COc1ccc2cc(-c3ccc4[nH]c(Cc5c(O)c(C)cc(C(C)=O)c5O)c(Cc5c(O)c(C)cc(C(C)=O)c5O)c4c3)ccc2c1	> 300 µM	> 14.2
CC(=O)c1cc(C)c(O)c(Cc2[nH]c3ccc(-c4cccc(F)c4)cc3c2Cc2c(O)c(C)cc(C(C)=O)c2O)c1O	> 300 µM	–
CC(=O)c1cc(C)c(O)c(Cc2[nH]c3ccc(-c4cc(C(C)(C)C)cc(C(C)(C)C)c4)cc3c2Cc2c(O)c(C)cc(C(C)=O)c2O)c1O	> 300 µM	–
COc1cccc(OC)c1-c1ccc2[nH]c(Cc3c(O)c(C)cc(C(C)=O)c3O)c(Cc3c(O)c(C)cc(C(C)=O)c3O)c2c1	271 µM	12.9
CC(=O)c1cc(C)c(O)c(Cc2[nH]c3ccc(-c4ccc5ncccc5c4)cc3c2Cc2c(O)c(C)cc(C(C)=O)c2O)c1O	> 300 µM	> 16.2
C=CCn1c(Cc2c(O)c(C)cc(C(C)=O)c2O)c(Cc2c(O)c(C)cc(C(C)=O)c2O)c2ccccc21	> 300 µM	–
CC(=O)c1cc(C)c(O)c(Cc2c(Cc3c(O)c(C)cc(C(C)=O)c3O)n(Cc3ccc(Cl)cc3)c3ccccc23)c1O	> 300 µM	–
COc1ccc(-c2ccc3c(Cc4c(O)c(C)cc(C(C)=O)c4O)c(Cc4c(O)c(C)cc(C(C)=O)c4O)[nH]c3c2)cc1	> 300 µM	> 34.5

Structure (SMILES)	CC50 at 48 h [1]	selectivity ratio [2]
CC(=O)c1cc(C)c(O)c(Cc2[nH]c3ccc(-c4cc(C)cc(C)c4)cc3c2Cc2c(O)c(C)cc(C(C)=O)c2O)c1O	> 300 µM	> 22.2
CC(=O)c1cc(C)c(O)c(Cc2[nH]c3cc(-c4ccc5c(c4)CCO5)ccc3c2Cc2c(O)c(C)cc(C(C)=O)c2O)c1O	> 300 µM	–
CC(=O)c1cc(C)c(O)c(Cc2[nH]c3ccc(-c4c5ccccc5c(-c5ccccc5)c5ccccc45)cc3c2Cc2c(O)c(C)cc(C(C)=O)c2O)c1O	> 300 µM	–
CC(=O)c1cc(C)c(O)c(Cc2[nH]c3cc(-c4c5ccccc5c(-c5ccccc5)c5ccccc45)ccc3c2Cc2c(O)c(C)cc(C(C)=O)c2O)c1O	> 300 µM	–
CC(=O)c1cc(C)c(O)c(Cc2[nH]c3ccc(Br)cc3c2Cc2c(O)c(C)cc(C(C)=O)c2O)c1O	233 µM	9.2
COc1cc(-c2ccc3c(Cc4c(O)c(C)cc(C(C)=O)c4O)c(Cc4c(O)c(C)cc(C(C)=O)c4O)[nH]c3c2)cc(OC)c1OC	> 300 µM	> 14.9
CSc1ccc(-c2ccc3[nH]c(Cc4c(O)c(C)cc(C(C)=O)c4O)c(Cc4c(O)c(C)cc(C(C)=O)c4O)c3c2)cc1	> 300 µM	> 17.1
COc1ccc(Cn2c(Cc3c(O)c(C)cc(C(C)=O)c3O)c(Cc3c(O)c(C)cc(C(C)=O)c3O)c3ccccc32)cc1	> 300 µM	–
CC(=O)c1cc(C)c(O)c(Cc2[nH]c3ccc(-c4ccccc4)cc3c2Cc2c(O)c(C)cc(C(C)=O)c2O)c1O	> 300 µM	> 11.5
CC(=O)c1cc(C)c(O)c(Cc2[nH]c3cc(-c4ccc5ccccc5c4)ccc3c2Cc2c(O)c(C)cc(C(C)=O)c2O)c1O	> 300 µM	> 11.5
CC(=O)c1cc(C)c(O)c(Cc2c(Cc3c(O)c(C)cc(C(C)=O)c3O)n(N)c3ccccc23)c1O	> 300 µM	–
COc1ccc(-c2ccc3[nH]c(Cc4c(O)c(C)cc(C(C)=O)c4O)c(Cc4c(O)c(C)cc(C(C)=O)c4O)c3c2)cc1	> 300 µM	> 18.4
CC(=O)c1cc(C)c(O)c(Cc2[nH]c3cc(-c4ccc(C(F)(F)F)cc4)ccc3c2Cc2c(O)c(C)cc(C(C)=O)c2O)c1O	> 300 µM	> 12
CC(=O)c1cc(C)c(O)c(Cc2[nH]c3ccc(-c4ccc5c(c4)CCO5)cc3c2Cc2c(O)c(C)cc(C(C)=O)c2O)c1O	> 300 µM	–
CC(=O)c1cc(C)c(O)c(Cc2[nH]c3ccc(-c4ccc5ccccc5c4)cc3c2Cc2c(O)c(C)cc(C(C)=O)c2O)c1O	> 300 µM	> 14.5
CC(=O)c1cc(C)c(O)c(Cc2[nH]c3cc(-c4ccc5cccnc5c4)ccc3c2Cc2c(O)c(C)cc(C(C)=O)c2O)c1O	> 300 µM	–
CC(=O)c1cc(C)c(O)c(Cc2[nH]c3ccc(-c4ccccc4F)cc3c2Cc2c(O)c(C)cc(C(C)=O)c2O)c1O	> 300 µM	–
CC(=O)c1cc(C)c(O)c(Cc2[nH]c3cc(-c4ccc(C)cc4)ccc3c2Cc2c(O)c(C)cc(C(C)=O)c2O)c1O	> 300 µM	> 12.4
CC(=O)c1cc(C)c(O)c(Cc2[nH]c3ccc(/C=C/c4ccccc4)cc3c2Cc2c(O)c(C)cc(C(C)=O)c2O)c1O	> 300 µM	–
CC(=O)c1cc(C)c(O)c(Cc2[nH]c3cc(-c4c5ccccc5cc5ccccc45)ccc3c2Cc2c(O)c(C)cc(C(C)=O)c2O)c1O	> 300 µM	> 36.1
